Tests used:
[1] = system: Jcl:ICR mice; experiment: Acute toxicity (LD50, Litchfield-Wilcoxon); format: in vivo; details: observed 7 days; for LD₅₀ Value Intraperitoneal: in physiological saline solution; for LD₅₀ Value Oral: oral by stomach sonde, in distilled water
Protocol: The acute toxicity was studied with Jcl:ICR mice through intraperitoneal route and oral route. For intraperitoneal route, the present substance was dissolved in a physiological saline solution and a predetermined dose of the substance was administered with an injector to the cavity. For oral route, the present substance was dissolved in a distilled water and administered forcibly through a stomach sonde.
After the administration, observation of toxicopathic symptoms of the mice were continued for 7 days and based on time to time death rates of the mice, LD₅₀ values were calculated. Both surviving and dead mice were anatomized and observed certain organs.

[2] = system: Bacillus subtilis M45; experiment: Mutagenicity Rec-assay, recombination repair deficient strain; details: for Growth Inhibited Area M45: 16 hours at 37°C; for Growth Inhibited Area M45 - H17: difference between strains
Protocol: (§1) First, mutagenecity was studied with Rec-assay. […] The present substance was dissolved with sterlized water, 0.05 ml of the solution was absorbed by a round filter paper having a diameter of 8 mm and immediately the filter paper was laid on the medium (B-II agar) in a manner to cover each of the satrt point of the streak. Then, the mdium was cultured for 16 hours at a temperature of 37°C and measured growth inhibited area. Kanamycin was used as a negative control and mitomycin as a positive control.

[3] = system: Bacillus subtilis H17; experiment: Mutagenicity Rec-assay, recombination repair proficient strain; details: 16 hours at 37°C
Protocol: as §1

[4] = system: TA100 of Salmonella typhimurium; experiment: Reversion assay (reversion colony test) TA100; format: cell-based; details: 5,000 µg/disk, 37°C for 2 days; Drug-free Control 149
Protocol: (§2) In addition, a reversion assay was performed using TA98 and TA100 of Salmonella typhimurium (both are histidine-requiring bacteria).
(§3) 10% by volume of 0.5 mM bithion solution containing 0.5 mM histidine was added to a soft agar solution (prepared with 6g of NaCl, 6g of agar and 1,000 ml of distilled water). Then, 0.1 ml of a solution containing 1 x 10⁸ of the bacteria and 0.1 ml of a solution of the present substance were added to 2 ml of the soft agar solution, mixed well and obtained soft agar solution was multilayered on a minimal agar medium. The medium layered was cultured at 37°C for 2 days and number of reversion colonies was counted. Furylfuramide (AF2) was used as a positive control.

[5] = system: TA98 of Salmonella typhimurium; experiment: Reversion assay (reversion colony test) TA98; format: cell-based; details: 5,000 µg/disk, 37°C for 2 days; Drug-free Control 13
Protocol: as §2, §3

[6] = Body weight of rats given CsA with the present substance; format: in vivo, Wistar male rats; details: at completion of the test; CsA 25 mg/kg/day i.p. 3 weeks plus present substance 300 mg/kg/day orally
Protocol: (§4) Various clearance tests and a saccharide tolerance test were performed after completion of the administrations. Then, after sacrificing the rats, their blood was taken for serum biochemical and general blood tests.

[7] = system: Wistar male rats; experiment: Kidney function (inulin clearance, serum creatinine) of rats given CsA with the present substance; format: in vivo; details: CsA 25 mg/kg/day i.p. 3 weeks plus present substance 300 mg/kg/day orally
Protocol: as §4

[8] = system: Wistar male rats; experiment: Saccharide tolerance test (pancreas function) of rats given CsA with the present substance; format: in vivo; details: CsA 25 mg/kg/day i.p. 3 weeks plus present substance 300 mg/kg/day orally
Protocol: as §4

[9] = system: Wistar male rats; experiment: Serum biochemical test, total bilirubin (liver function) of rats given CsA with the present substance; format: in vivo; details: CsA 25 mg/kg/day i.p. 3 weeks plus present substance 300 mg/kg/day orally
Protocol: as §4

[10] = system: human lymphocyte; experiment: Mixed lymphocyte culture, 3H-thymidine uptake (proliferation of lymphocytes); format: cell-based; details: CsA 0.1 µg/ml plus present substance 100 µg/ml, cultured 6 days;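 also: percent suppression of proliferation derived from uptake with CsA alone versus CsA plus substance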
Protocol: A mixture of 50 µl of human lymphocyte (1.6 x 10⁶/ml) with 50 µl of the lymphocytes treated with mitomycin C (MMC) (1.7 x 10⁶/ml) was cultured for 6 days and an uptake of ³H-thymidine, an index of proliferation of lymphocyte, was studied. The medium used for culture comprised bovine fetal serum (10% in quantity) and RPMI 1640 (90% in quantity). […] From the calculated ratio, the effects of the present substance on immuno function were studied.

Row | SMILES | LD₅₀ Value Intraperitoneal [1] [mg/kg] | LD₅₀ Value Oral [1] [mg/kg] | Growth Inhibited Area M45 ([2]; 500 µg/disk) [mm] | Growth Inhibited Area M45 - H17 ([2]; 500 µg/disk) [mm] | Growth Inhibited Area M45 ([2]; 5,000 µg/disk) [mm] | Growth Inhibited Area M45 - H17 ([2]; 5,000 µg/disk) [mm] | Growth Inhibited Area H17 ([3]; 500 µg/disk) [mm] | Growth Inhibited Area H17 ([3]; 5,000 µg/disk) [mm] | No. of Reversion Colony TA100 [4] [n/plate] | No. of Reversion Colony TA98 [5] [n/plate] | Body Weight [6] [g] | Kidney Function Inulin Clearance [7] [mL/min] | Kidney Function Serum Creatinine [7] [mg/dL] | Blood sugar value measured 10 minutes after the test [8] [mg/dL] | Insuline Value 10 Min.After The Test [8] [mµ/ml] | Insuline Value Before The Test [8] [mµ/ml] | TBI (seerum total bilirubin value) [9] [mg/dL] | Depressing Ratio [10] [%]
1 | CC1OC(Nc2ccccc2C(=O)[O-])C(O)C(O)C1O.[Na+] [Compound 20, o-Aminobenzoic acid-N-L-rhamnoside] | > 15000 | 12500 | 0 | 0 | 6 | 4 | 0 | 2 | 61 | 9 | 233 | 1.95 | 0.64 | 576 | 6.38 | 4.34 | 0.31 | 26
2 | O=C(O)c1cccc(NC2O[C@H](CO)[C@@H](O)[C@H](O)[C@@H]2O)c1 (stereo partly drawn) [Compound 24, m-Aminobenzoic acid-N-D-mannoside] | > 10000 | > 10000 | 0 | 0 | 7 | 6 | 0 | 1 | 90 | 6 | 240 | 2.00 | 0.64 | 578 | 6.37 | 4.40 | 0.30 | 27
3 | O=C([O-])c1ccccc1NC1OCC(O)C(O)C1O.[Na+] [Compound 4, o-Aminobenzoic acid-N-L-arabinoside] | 7480 | 6350 | 0 | 0 | 8 | 4 | 0 | 4 | 59 | 4 | 218 | 1.78 | 0.67 | 591 | 6.22 | 3.89 | 0.37 | 26
4 | O=C([O-])c1ccccc1NC1O[C@H](CO)[C@@H](O)[C@H](O)[C@H]1O.[Na+] (stereo partly drawn) [Compound 12, o-Aminobenzoic acid-N-D-glucoside] | 13380 | 8960 | 0 | 0 | 5 | 3 | 0 | 2 | 151 | 5 | 232 | 1.88 | 0.64 | 589 | 6.12 | 4.11 | 0.36 | 27
5 | C[C@@H]1OC(Nc2ccc(C(=O)O)cc2)[C@H](O)[C@H](O)[C@H]1O (stereo partly drawn) [Compound 18, p-Aminobenzoic acid-N-L-rhamnoside] | 15000 | 12800 | 0 | 0 | 0 | 0 | 0 | 0 | 73 | 4 | 238 | 1.97 | 0.64 | 573 | 6.44 | 4.30 | 0.29 | 27
6 | O=C(O)c1ccc(NC2O[C@H](CO)[C@@H](O)[C@H](O)[C@@H]2O)cc1 (stereo partly drawn) [Compound 22, p-Aminobenzoic acid-N-D-mannoside] | > 10000 | >10000 | 0 | 0 | 0 | 0 | 0 | 0 | 138 | 5 | 245 | 2.05 | 0.63 | 569 | 6.50 | 4.45 | 0.27 | 28

Reference: patent publication EP0354042A2, “Aminobenzoic-acid derivatives to reduce side effects induced by an administration of immuno-suppressant” (priority 1988, dated 1990)
